Experimental data from patent publication US8901118B2, “Compounds and methods for kinase modulation, and indications therefor” (Plexxikon Inc., priority 2010, dated 2014).

How the values were obtained:
MV-4-11 cells = assay: MV-4-11 (leukemia) cell proliferation assay (ATPlite); assay type: cell-based; conditions: Homo sapiens, MV4-11, read-out: Inhibition of Cell Proliferation IC50, MV-4-11
Outline: (§1)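 BaF3 cells expressing BCR fusions were plated at 10,000 cells/well without IL-3, and MV-4-11 cells at 25,000 cells/well. Cells were treated the next day with an 8-point 1:3 dilution series (top 10 μM final) and incubated 3 days at 37 °C. ATPlite luminescence gave cell number, from which IC50 was fitted.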

BCR-NTRK3 BaF3 cells = biological target: T1, BCR-NTRK3 BaF3 cells (Homo sapiens, UniProt Q16288); assay: BaF3 BCR-NTRK3 cell proliferation assay (ATPlite); assay type: cell-based; conditions: read-out: Inhibition of Cell Proliferation IC50, BCR/BaF3 TrkC
T1 construct: fused on or other part: P11274 (Breakpoint cluster region protein)
Outline: as §1

[1] = Relative solubility by turbidity in aqueous buffers (pH 1.5, 4.5, 6.8, 7.4); assay type: physicochemical; conditions: for turbidity threshold (L, M, H) 1.4: pH 1.5 (SGF); for turbidity threshold (L, M, H) 4.5: pH 4.5 (SIF); for turbidity threshold (L, M, H) 6.8: pH 6.8 (SIF); for turbidity threshold (L, M, H) 7.4: pH 7.4 (HEPES)
Outline: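 Twofold DMSO dilutions of a 25 mM stock were spiked into SGF (0.5M NaCl, pH 1.5), SIF (0.05M NaH2PO4, pH 4.5 and 6.8) or HEPES buffer (10 mM HEPES, 150 mM NaCl, pH 7.4). Absorbance was read at 490, 535 and 650 nm. The endpoint is the concentration crossing O.D. 0.01, averaged across wavelengths.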

T1 sequence (Q16288 whole entry, the tested form may be a part): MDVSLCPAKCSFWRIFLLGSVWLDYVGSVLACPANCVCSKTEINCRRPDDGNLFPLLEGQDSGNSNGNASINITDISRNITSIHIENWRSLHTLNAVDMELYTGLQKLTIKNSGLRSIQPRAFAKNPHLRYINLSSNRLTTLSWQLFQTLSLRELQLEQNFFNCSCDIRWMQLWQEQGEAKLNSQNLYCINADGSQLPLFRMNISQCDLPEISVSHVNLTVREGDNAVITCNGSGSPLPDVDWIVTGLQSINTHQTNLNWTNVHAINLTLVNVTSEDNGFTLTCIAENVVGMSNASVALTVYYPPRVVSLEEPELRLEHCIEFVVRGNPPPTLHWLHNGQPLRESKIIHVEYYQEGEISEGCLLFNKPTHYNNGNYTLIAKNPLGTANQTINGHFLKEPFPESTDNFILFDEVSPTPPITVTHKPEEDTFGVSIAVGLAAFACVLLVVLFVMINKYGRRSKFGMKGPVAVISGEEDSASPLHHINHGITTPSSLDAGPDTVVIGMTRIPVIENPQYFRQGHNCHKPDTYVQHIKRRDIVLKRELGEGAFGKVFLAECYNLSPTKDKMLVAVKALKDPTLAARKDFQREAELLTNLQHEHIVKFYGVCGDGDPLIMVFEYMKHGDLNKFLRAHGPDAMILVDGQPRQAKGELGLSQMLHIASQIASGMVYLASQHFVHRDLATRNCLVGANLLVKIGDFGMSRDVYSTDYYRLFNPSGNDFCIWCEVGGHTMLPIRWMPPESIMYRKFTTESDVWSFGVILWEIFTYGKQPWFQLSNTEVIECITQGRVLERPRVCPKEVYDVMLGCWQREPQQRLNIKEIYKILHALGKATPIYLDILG

Row | Structure (SMILES) | IC50 (MV-4-11 cells) [µM] | IC50 (BCR-NTRK3 BaF3 cells) [µM] | turbidity threshold (L, M, H) 1.4 [1] | turbidity threshold (L, M, H) 4.5 [1] | turbidity threshold (L, M, H) 6.8 [1] | turbidity threshold (L, M, H) 7.4 [1]
1 | COCCOc1ncnc2[nH]cc(Cc3ccc(Nc4ccc(C)nc4)nc3F)c12 [Compound P-4015, {6-Fluoro-5-[4-(2-methoxy-ethoxy)-7H-pyrrolo[2,3-d]pyrimidin-5-ylmethyl]-pyridin-2-yl}-(6-methyl-pyridin-3-yl)-amine] | < 1 | < 0.1 | M (moderate solubility if the threshold concentration is 31.3 μM to 250 μM) | M (moderate solubility if the threshold concentration is 31.3 μM to 250 μM) | M (moderate solubility if the threshold concentration is 31.3 μM to 250 μM) | M (moderate solubility if the threshold concentration is 31.3 μM to 250 μM)
2 | CCOc1ncnc2[nH]cc(Cc3ccc(Nc4ccc(C)nc4)nc3F)c12 [Compound P-4017, [5-(4-Ethoxy-7H-pyrrolo[2,3-d]pyrimidin-5-ylmethyl)-6-fluoro-pyridin-2-yl]-(6-methyl-pyridin-3-yl)-amine] | < 1 | < 0.1 | M (moderate solubility if the threshold concentration is 31.3 μM to 250 μM) | M (moderate solubility if the threshold concentration is 31.3 μM to 250 μM) | M (moderate solubility if the threshold concentration is 31.3 μM to 250 μM) | L (low solubility if the threshold concentration is <31.3 μM)
3 | CCOc1ncnc2[nH]cc(Cc3ccc(Nc4ccc(OC)nc4)nc3F)c12 [Compound P-4018, [5-(4-Ethoxy-7H-pyrrolo[2,3-d]pyrimidin-5-ylmethyl)-6-fluoro-pyridin-2-yl]-(6-methoxy-pyridin-3-yl)-amine] | < 1 | < 0.01 | M (moderate solubility if the threshold concentration is 31.3 μM to 250 μM) | L (low solubility if the threshold concentration is <31.3 μM) | L (low solubility if the threshold concentration is <31.3 μM) | L (low solubility if the threshold concentration is <31.3 μM)
4 | COCCOc1ncnc2[nH]cc(Cc3ccc(Nc4ccc(OC)nc4)nc3F)c12 [Compound P-4019, {6-Fluoro-5-[4-(2-methoxy-ethoxy)-7H-pyrrolo[2,3-d]pyrimidin-5-ylmethyl]-pyridin-2-yl}-(6-methoxy-pyridin-3-yl)-amine] | < 1 | < 0.1 | M (moderate solubility if the threshold concentration is 31.3 μM to 250 μM) | L (low solubility if the threshold concentration is <31.3 μM) | L (low solubility if the threshold concentration is <31.3 μM) | L (low solubility if the threshold concentration is <31.3 μM)

Now from value to compound, other results behind:

Row | IC50 (MV-4-11 cells) [µM] | IC50 (BCR-NTRK3 BaF3 cells) [µM] | Structure (SMILES) | turbidity threshold (L, M, H) 1.4 [1] | turbidity threshold (L, M, H) 4.5 [1] | turbidity threshold (L, M, H) 6.8 [1] | turbidity threshold (L, M, H) 7.4 [1]
5 | < 1 | < 1 | CCn1cc(Nc2ccc(Cc3c[nH]c4ncnc(C)c34)c(F)n2)cn1 [Compound P-4013, (1-Ethyl-1H-pyrazol-4-yl)-[6-fluoro-5-(4-methyl-7H-pyrrolo[2,3-d]pyrimidin-5-ylmethyl)-pyridin-2-yl]-amine] | H (high solubility if the threshold concentration is >250 μm) | M (moderate solubility if the threshold concentration is 31.3 μM to 250 μM) | M (moderate solubility if the threshold concentration is 31.3 μM to 250 μM) | M (moderate solubility if the threshold concentration is 31.3 μM to 250 μM)
6 | < 1 | < 1 | CCn1cc(Nc2ccc(Cc3c[nH]c4ncnc(OCCOC)c34)c(F)n2)cn1 [Compound P-4014, (1-Ethyl-1H-pyrazol-4-yl)-{6-fluoro-5-[4-(2-methoxy-ethoxy)-7H-pyrrolo[2,3-d]pyrimidin-5-ylmethyl]-pyridin-2-yl}-amine] | M (moderate solubility if the threshold concentration is 31.3 μM to 250 μM) | M (moderate solubility if the threshold concentration is 31.3 μM to 250 μM) | M (moderate solubility if the threshold concentration is 31.3 μM to 250 μM) | M (moderate solubility if the threshold concentration is 31.3 μM to 250 μM)
7 | < 0.1 | < 0.01 | CCc1ccc(Nc2ccc(Cc3c[nH]c4ncnc(OCCOC)c34)c(F)n2)cn1 [Compound P-4016, (6-Ethyl-pyridin-3-yl)-{6-fluoro-5-[4-(2-methoxy-ethoxy)-7H-pyrrolo[2,3-d]pyrimidin-5-ylmethyl]-pyridin-2-yl}-amine] | M (moderate solubility if the threshold concentration is 31.3 μM to 250 μM) | H (high solubility if the threshold concentration is >250 μm) | M (moderate solubility if the threshold concentration is 31.3 μM to 250 μM) | M (moderate solubility if the threshold concentration is 31.3 μM to 250 μM)
